Experimental data from patent publication US11253497B2, “Use of derivatives of polyunsaturated fatty acids as medicaments” (Lipopharma Therapeutics, S.L., priority 2009, dated 2022).

What was measured:
[1] = tested on: Spontaneously Hypertensive Rats (SHR); test: Blood pressure of SHR rats (cuff-tail method); assay type: in vivo, rat; conditions: 200 mg/kg day p.o., 30 days, before treatment 214 mmHg
Protocol: (§1) In a separate experimental series, it was studied the effect of D-PUFA molecules of the present invention on blood pressure of SHR rats. In these animals both, blood pressure and levels of apolipoprotein AI (apoA-I) were measured. For these experiments Spontaneously Hypertensive Rats (SHR) were treated for 30 days with vehicle (water control) or compounds of the invention (200 mg/kg day, p.o.). At the end of this period, the animals' blood pressure and serum levels of apoA-I were measured. […] For these experiments, non-invasive methods for determining blood pressure (cuff-tail method) and gene expression for apoA-I (RT-PCR) described in the literature (Terés et al., 2008) were used. The usefulness of the molecules of the present invention for the treatment of cardiovascular diseases is reinforced by its capacity for reducing the levels of serum cholesterol and triglycerides (see below).
(§2) The average values of SHR before treatment were 214 mmHg and 100% respectively.

[2] = tested on: brain cancer cell (glioma) U118; test: Brain cancer (glioma) U118 cell growth; assay type: cell-based; conditions: 72 hours of incubation
Protocol: For the experiments shown in FIG. 1, cultured human Non Small Cell Lung Cancer cells (A549) in RPMI 1640 were used, supplemented with 10% foetal bovine serum and antibiotics, at 37° C. and 5% CO2. Cells were maintained in culture for 48 hours in the presence or absence of D-PUFAs and PUFAs indicated in Table 2 at a concentration of 250 µM. After treatment, cell count was performed and the study of the mechanisms involved in the antitumor activity of compounds was evaluated by flow cytometry. […] These values correspond to averages of three independent experiments.
(§3) These charts show the antitumor efficacy of the compounds of this invention against the growth of breast cancer cells, brain (glioma), and lung cancer. […] The other experimental conditions are identical to those described in the preceding paragraph.

lung cancer cells A549 = test: Growth of lung cancer cells A549 (IC50); assay type: cell-based, human; conditions: 72 hours of incubation
Protocol: (§4) For the experiments shown in FIG. 1, cultured human Non Small Cell Lung Cancer cells (A549) in RPMI 1640 were used, supplemented with 10% foetal bovine serum and antibiotics, at 37° C. and 5% CO2. […] After treatment, cell count was performed and the study of the mechanisms involved in the antitumor activity of compounds was evaluated by flow cytometry. […] These values correspond to averages of three independent experiments.
as §3

[3] = tested on: apolipoprotein AI (apoA-I); test: Levels of apoA-I in SHR rats (RT-PCR); assay type: in vivo, rat; conditions: 200 mg/kg day p.o., 30 days, before treatment 100%
Protocol: as §1, §2

[4] = tested on: breast cancer cells MDA-MB-231; test: Growth of breast cancer cells MDA-MB-231; assay type: cell-based; conditions: 72 hours of incubation
Protocol: as §4, §3

[5] = Lamellar-to-hexagonal (HII) transition temperature in DEPE model membranes by Differential Scanning Calorimetry; assay type: physicochemical; conditions: DEPE membranes, DEPE:D-PUFA 10:1 (mol:mol)
Protocol: The transition temperature was determined by Differential Scanning Calorimetry. The proportion DEPE:D-PUFA was 10:1 (mol:mol) in all cases. Lamellar-to-hexagonal transition is an important parameter that reflects relevant signalling properties of cell membranes. […] When this occurs, certain peripheral membrane proteins (such as G proteins, protein kinase C or Ras protein) can more easily bind to the membrane, while others have a poor interaction (e.g., the Gα-protein), so changes in the HII transition temperature are important in regulating cellular functions related to health and human therapy (Escriba et al., 1995, Vogler et al., 2004; Escriba, 2006).
Control values correspond to model membranes in the absence of fatty acids. The reduction in HII transition temperature obtained by using the D-PUFA of the invention indicates an increased induction of membrane discontinuities, generating anchoring sites in the membrane for peripheral proteins and leads to better regulation of cell signalling and, therefore, greater effectiveness in the control of certain diseases.

| Structure (SMILES) | Blood pressure [1] | IC50 [2] | IC50 (lung cancer cells A549) | Levels of apoA-I [3] | IC50 [4] | Temperature of lamellar-to-hexagonal transition [5] |
| --- | --- | --- | --- | --- | --- | --- |
| CCC=CCC=CCC=CCCCCCCC(CO)C(=O)O (centres unmarked) [183P1] | 201 mm Hg | 285 µM | 317 µM | 178% | 349 µM | – |
| CCCCCC=CCC=CCCCCCCC(CO)C(=O)O (centres unmarked) [182P1] | 202 mm Hg | – | 328 µM | 184% | 419 µM | – |
| CCC=CCC=CCC=CCC=CCC=CCC=CCC(O)C(=O)OCC (centres unmarked) [226E1] | – | 265 µM | 209 µM | – | 207 µM | 42.9 °C |
| CCCCCC=CCC=CCCCCCCC(OP(=O)(OCC)OCC)C(=O)OCC (centres unmarked) [182R1] | – | 255 µM | 317 µM | – | 371 µM | 52.2 °C |
| CCC=CCC=CCC=CCCCCCCC(Cl)C(=O)OCC (centres unmarked) [183O1] | – | 370 µM | 344 µM | – | 267 µM | 51.2 °C |
| CCC=CCC=CCC=CCCCCCCC(O)C(=O)OCC (centres unmarked) [183E1] | – | – | 294 µM | – | 319 µM | 49.8 °C |
| CCC=CCC=CCC=CCC=CCC=CCCC(CO)C(=O)O (centres unmarked) [205P1] | 194 mm Hg | 432 µM | 339 µM | 337% | 301 µM | – |
| CCC=CCC=CCC=CCCCCCCC(OP(=O)(OCC)OCC)C(=O)OCC (centres unmarked) [183R1] | – | 307 µM | 258 µM | – | 305 µM | 51.8 °C |
| CCCCCC=CCC=CCCCCCCC(O)C(=O)OC (centres unmarked) [182D1] | – | 221 µM | 541 µM | – | 277 µM | 51 °C |
| CCCCCC=CCC=CCC=CCCCC(O)C(=O)OCC (centres unmarked) [183E2] | – | – | 243 µM | – | 193 µM | 49.3 °C |
| CCCCCC=CCC=CCC=CCC=CCCC(Cl)C(=O)OCC (centres unmarked) [204O1] | – | – | 461 µM | – | 298 µM | 49.7 °C |
| CCCCCC=CCC=CCC=CCCCC(CO)C(=O)O (centres unmarked) [183P2] | 187 mm Hg | 389 µM | 272 µM | 347% | 214 µM | – |
| CCCCCC=CCC=CCC=CCC=CCCC(OP(=O)(OCC)OCC)C(=O)OCC (centres unmarked) [204R1] | – | 501 µM | 364 µM | – | 285 µM | 50 °C |
| CCC=CCC=CCC=CCC=CCC=CCCC(O)C(=O)OCC (centres unmarked) [205E1] | – | 513 µM | 413 µM | – | 284 µM | 46.7 °C |
| CCC=CCC=CCC=CCC=CCC=CCC=CCC(OC)C(=O)O (centres unmarked) [226G1] | – | 278 µM | 273 µM | – | 213 µM | 44.1 °C |
| CCCCCC=CCC=CCC=CCCCC(OP(=O)(OCC)OCC)C(=O)OCC (centres unmarked) [183R2] | – | 454 µM | 274 µM | – | 172 µM | 49.9 °C |

| Structure (SMILES) | Blood pressure [1] | IC50 [2] | IC50 (lung cancer cells A549) | Levels of apoA-I [3] | IC50 [4] | Temperature of lamellar-to-hexagonal transition [5] |
| --- | --- | --- | --- | --- | --- | --- |
| CCC=CCC=CCC=CCC=CCC=CCCC(OP(=O)(OCC)OCC)C(=O)OCC (centres unmarked) [205R1] | – | 468 µM | 417 µM | – | 245 µM | 48.4 °C |
| CCCCCC=CCC=CCCCCCCC(O)C(=O)OCC (centres unmarked) [182E1] | – | 213 µM | 387 µM | – | 289 µM | 50.6 °C |
| CCCCCC=CCC=CCC=CCC=CCCC(CO)C(=O)O (centres unmarked) [204P1] | 203 mm Hg | 291 µM | 387 µM | 153% | 370 µM | – |
| CCCCCC=CCC=CCCCCCCC(OC)C(=O)O (centres unmarked) [182G1] | – | 205 µM | 439 µM | – | 378 µM | 51 °C |
| CCCCCC=CCC=CCC=CCC=CCCC(OC)C(=O)O (centres unmarked) [204G1] | – | 342 µM | 427 µM | – | 372 µM | 49.6 °C |
| CCC=CCC=CCC=CCC=CCC=CCC=CCC(O)C(=O)OC (centres unmarked) [226D1] | – | 241 µM | 221 µM | – | 224 µM | 43.9 °C |
| CCCCCC=CCC=CCC=CCC=CCCC(O)C(=O)OC (centres unmarked) [204D1] | – | 311 µM | 372 µM | – | 281 µM | 48.7 °C |
| CCCCCC=CCC=CCC=CCCCC(OC)C(=O)O (centres unmarked) [183G2] | – | 394 µM | 295 µM | – | 159 µM | 50.1 °C |
| CCC=CCC=CCC=CCC=CCC=CCCC(O)C(=O)OC (centres unmarked) [205D1] | – | 467 µM | 364 µM | – | 2 µM | 47.5 °C |
| CCC=CCC=CCC=CCCCCCCC(OC)C(=O)O (centres unmarked) [183G1] | – | 329 µM | 273 µM | – | 364 µM | 50.3 °C |
| CCCCCC=CCC=CCC=CCCCC(O)C(=O)OC (centres unmarked) [183D2] | – | 385 µM | 267 µM | – | 175 µM | 49.4 °C |
| CCCCCC=CCC=CCCCCCCC(Cl)C(=O)OCC (centres unmarked) [182O1] | – | – | 452 µM | – | 286 µM | 51.7 °C |
| CCC=CCC=CCC=CCC=CCC=CCCC(OC)C(=O)O (centres unmarked) [205G1] | – | 426 µM | 407 µM | – | 219 µM | 47.3 °C |
| CCC=CCC=CCC=CCC=CCC=CCC=CCC(CO)C(=O)O (centres unmarked) [226P1] | 193 mm Hg | 290 µM | 291 µM | 382% | 250 µM | – |
| CCCCCC=CCC=CCC=CCC=CCCC(O)C(=O)OCC (centres unmarked) [204E1] | – | 224 µM | 475 µM | – | 299 µM | 48.4 °C |
| CCC=CCC=CCC=CCC=CCC=CCCC(Cl)C(=O)OCC (centres unmarked) [205O1] | – | – | 418 µM | – | 264 µM | 48.6 °C |
